17 sequences from paper PMC10977697 (PLOS ONE, 2024) can be followed below.

The test system of one assay is CD28-Fc. In words: Spot phage ELISA, CD28-Fc. Format: binding. The settings on record: for ELISA: spot phage ELISA signal of phage-displayed DCP clone on CD28-Fc; for S/N: spot phage ELISA signal-to-noise on CD28-Fc.
A further assay has as its system PCSK9ΔCRD (PCSK9dCRD). It counts as binding, human. As to conditions: for S/N: ratio of signal for target protein over BSA background; for ELISA: spot phage ELISA signal, DCP displayed on M13 p8.

Where no end group is shown, it is not given here.

For the sequence “GCYLKRRHCKQDSDCLAGCVCGWEHTCG (disulfide (positions not given here)) [CD28-Fc EET I-II 9]”, in the assay on CD28-Fc, the ELISA is on record as 1.52 and the S/N amounted to 23.4.
In the assay on CD28-Fc, “GCIWGWAACKQDSDCLAGCVCQIWGRCG (disulfide (positions not given here)) [CD28-Fc EET I-II 3]” registered an ELISA of 1.58 and a S/N of 10.7.
For “GCHYNWDQCKQDSDCLAGCVCLIWYRCD (disulfide (positions not given here)) [CD28-Fc EET I-II 12]” the same measures were 1.06 and 20.1.
In the assay with CD28-Fc, “GCYQKRVQCKQDSDCLAGCVCGWEAQCG (disulfide (positions not given here)) [CD28-Fc EET I-II 10]” displayed an ELISA of 1.41 and a S/N of 15.0.
In the assay with CD28-Fc, “GCMYHWEACKQDSDCLAGCICHIWIPCG (disulfide (positions not given here)) [CD28-Fc EET I-II 8]” displayed an ELISA of 1.07 and a S/N of 16.4.
In the assay on CD28-Fc, “GCFENWATCKQDSDCLAGCVCKIWKRCG (disulfide (positions not given here)) [CD28-Fc EET I-II 5]” had an ELISA of 1.34 and a S/N of 19.6.
With “AFDCLGQCGRCDFHKLQCVNIEYYRDWDHYQYCNSSCTR (also: bicyclic or more (positions not given here)) [PCSK9dCRD AVR9 82]”, in the assay with PCSK9ΔCRD (PCSK9dCRD), the S/N came to 27.6 and the ELISA was found to be 2.13.
Take “AFDCLGQCGRCDFHKLQCVYTSWQHYQYCNSSCTR (also: bicyclic or more (positions not given here)) [PCSK9dCRD AVR9 58]”: in the assay with PCSK9ΔCRD (PCSK9dCRD), the S/N was found to be 35.3 and the ELISA is recorded as 2.67.
“AFDCLGQCGRCDFHKLQCVWQTWSAYLYCNSSCTR (also: bicyclic or more (positions not given here)) [PCSK9dCRD AVR9 80]”: in the assay with PCSK9ΔCRD (PCSK9dCRD), the S/N is reported as 2.9 and the ELISA is 2.10.
Take “GPTQSVGGVCGGIGYSGPTVCASGTTCQVLSPKTSICLPGAS (also: bicyclic or more (positions not given here)) [PCSK9dCRD CBD 40]”: in the assay on PCSK9ΔCRD (PCSK9dCRD), the S/N is recorded as 27.5 and the ELISA amounted to 2.39.
The like results for “AFDCLGQCGRCDFHKLQCVYSSWAHYQYCNSSCTR (also: bicyclic or more (positions not given here)) [PCSK9dCRD AVR9 57]” were, in that order, 33.9 and 2.57.
“AFDCLGQCGRCDFHKLQCVGKFRSFQDYQYCNSSCTR (also: bicyclic or more (positions not given here)) [PCSK9dCRD AVR9 18]”: in the assay with PCSK9ΔCRD (PCSK9dCRD), the S/N worked out at 28.6 and the ELISA is 2.52.
Turning to “AFDCLGQCGRCDFHKLQCVYQSWDHYQYCNSSCTR (also: bicyclic or more (positions not given here)) [PCSK9dCRD AVR9 14]”, in the assay with PCSK9ΔCRD (PCSK9dCRD), the S/N came to 30.5 and the ELISA came to 2.41.
For “AFDCLGQCGRCDFHKLQCVYRSWAHFQYCNSSCTR (also: bicyclic or more (positions not given here)) [PCSK9dCRD AVR9 11]” the same measures were 18.5 and 2.52.
On to “AFDCLGQCGRCDFHKLQCVYKDWGHYLYCNSSCTR (also: bicyclic or more (positions not given here)) [PCSK9dCRD AVR9 34]”, for which, in the assay with PCSK9ΔCRD (PCSK9dCRD), the S/N was 24.0 and the ELISA is 1.80.
“AFDCLGQCGRCDFHKLQCVYKTWQDYQYCNSSCTR (also: bicyclic or more (positions not given here)) [PCSK9dCRD AVR9 53]”: in the assay on PCSK9ΔCRD (PCSK9dCRD), the S/N was found to be 36.1 and the ELISA was determined as 2.49.
As for “AFDCLGQCGRCDFHKLQCVWTSWGDYIKYGAYCNSSCTR (also: bicyclic or more (positions not given here)) [PCSK9dCRD AVR9 94]”, in the assay on PCSK9ΔCRD (PCSK9dCRD), the S/N turned out to be 10.9 and the ELISA was determined as 2.09.
